Assay results as given in PubChem BioAssay AID608 (Sanford-Burnham Center for Chemical Genomics, 2007).
Active and inactive are the calls of the source. How the calls were made is not given here.

Molecular target: Peptidyl-prolyl cis-trans isomerase FKBP1A (Homo sapiens) (UniProt P62942)
Test: small-molecule binding to FKBP12 – biophysical, NMR detection (AID 608)
Conditions: purified FKBP12

Sequence of Peptidyl-prolyl cis-trans isomerase FKBP1A (Homo sapiens) (P62942 whole entry, looked up): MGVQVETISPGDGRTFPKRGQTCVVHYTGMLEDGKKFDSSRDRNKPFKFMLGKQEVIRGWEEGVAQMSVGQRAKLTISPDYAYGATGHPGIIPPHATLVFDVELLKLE

Row | SMILES | Kd
1 | Cn1c(-c2ccccc2F)n[nH]c1=S | > 4 mM (inactive)
2 | Cc1ccc(CNc2ccc(O)cc2)cc1 | > 4 mM (inactive)
3 | COc1c(O)cc2oc3cc(O)c(CC=C(C)C)c(O)c3c(=O)c2c1CC=C(C)C | > 4 mM (inactive)
4 | Cc1cc(C(=O)Nc2nnc(C(F)(F)F)s2)no1 | > 4 mM (inactive)
5 | Nc1nc(-c2ccc(F)c(F)c2)cs1 | > 4 mM (inactive)
6 | Cn1nc(C(C)(C)C)cc1N | > 4 mM (inactive)
7 | O=C(NCCO)c1ccccc1I | > 4 mM (inactive)
8 | CC(=O)OC1CC[C@@]2(C)C(CCC3C2CC[C@]2(C)C(C4=CC(=O)OC4)C(OC(C)=O)CC32O)C1 (stereo partly specified) | > 4 mM (inactive)
9 | O=c1[nH]nc(Cc2ccncc2)c2ccccc12 | > 4 mM (inactive)
10 | CC(=O)O[C@H]1C[C@@H](OC(C)=O)C(C)(C)C2C[C@@H](OC(C)=O)[C@@]3(C)C4=CC(=O)O[C@@H](c5ccoc5)[C@]4(C)CCC3[C@]21C (stereo partly specified) | > 4 mM (inactive)
11 | Cc1nc2ccccc2c(=O)[nH]1 | > 4 mM (inactive)
12 | c1ccc(-c2csc(Nc3cccnc3)n2)nc1 | > 4 mM (inactive)
13 | O=[N+]([O-])c1cccc(-c2c[n+](=O)c3c(n2[O-])CCC3)c1 | > 4 mM (inactive)
14 | CC(=O)c1c(C)nn(CC(=O)O)c1C | > 4 mM (inactive)
15 | Cc1cc(C(=O)NCc2cccs2)cs1 | > 4 mM (inactive)
16 | O=C(O)c1ccc(NC(=O)c2cccs2)cc1 | > 4 mM (inactive)
17 | Cc1c(N=Cc2ccc[nH]2)c(=O)n(-c2ccccc2)n1C | > 4 mM (inactive)
18 | CCOC(=O)CC1Sc2ccccc2NC1=S (stereo unspecified) | > 4 mM (inactive)
19 | NC(=O)c1ccccc1NC(=O)C1CCCO1 (stereo unspecified) | > 4 mM (inactive)
20 | CNC(=O)C(=O)NCc1ccc(C)cc1 | > 4 mM (inactive)
21 | CN1C(=O)/C(=C/c2ccccc2O)NC1=S | > 4 mM (inactive)
22 | Oc1ccc2c(c1)OCC1(O)Cc3cc(O)c(O)cc3C21 (stereo unspecified) | > 4 mM (inactive)
23 | CC(=O)c1c(O)n(C)c(=S)n(C)c1=O | > 4 mM (inactive)
24 | O=C(O)c1csc(-c2cccnc2)n1 | > 4 mM (inactive)

Row | SMILES | Kd
25 | CCN1CCC(NC2CCCCNC2=O)CC1 (stereo unspecified) | > 4 mM (inactive)
26 | c1ccc(Cn2c(Nn3cnnc3)nc3ccccc32)cc1 | > 4 mM (inactive)
27 | O=C(NC1=NCCS1)c1ccc2snnc2c1 | > 4 mM (inactive)
28 | Cc1cn2c(-c3cccnc3)nnc2s1 | > 4 mM (inactive)
29 | Nc1cc(F)nc(F)n1 | > 4 mM (inactive)
30 | NC(=O)CSc1ccc(-c2ccco2)nn1 | > 4 mM (inactive)
31 | O=C(CSc1ccc(C(F)(F)F)cc1[N+](=O)[O-])N1CCOCC1 | 0.448 mM
32 | NC(=NCCC[C@H](N)C(=O)O)NC(CCC(=O)O)C(=O)O (stereo partly specified) | > 4 mM (inactive)
33 | CCOC(=O)c1c(C)nc2c(C#N)cnn2c1C | > 4 mM (inactive)
34 | O=C(c1ccc2c(c1)OCO2)N1CCC2(CC1)OCCO2 | > 4 mM (inactive)
35 | CCn1nnc(NC(=O)c2ccccc2Br)n1 | > 4 mM (inactive)
36 | NC(N)=NOCC[C@H](N)C(=O)O | > 4 mM (inactive)
37 | COc1cc2c(c(OC)c1OC)-c1ccc(O)c(=O)cc1[C@@H](NC(C)=O)CC2 | > 4 mM (inactive)
38 | O=C(Nc1ccon1)c1ccc2c(c1)OCO2 | > 4 mM (inactive)
39 | O=c1[nH]cc(S(=O)(=O)Nc2ccccc2)c(=O)[nH]1 | > 4 mM (inactive)
40 | O=C(O)c1cccnc1N1CCCC1 | > 4 mM (inactive)
41 | NC1=NC(=O)/C(=C\c2ccccc2)S1 | > 4 mM (inactive)
42 | Fc1ccc(F)c(CN2CCN(c3ncccn3)CC2)c1 | > 4 mM (inactive)
43 | Nc1c(N2CCCC2)cnn(-c2ccccc2)c1=O | > 4 mM (inactive)
44 | O=C(O[C@@H]1Cc2c(O)cc(O)cc2O[C@@H]1c1cc(=O)c(O)c2c(O)c(O)cc([C@H]3Oc4cc(O)cc(O)c4C[C@H]3O)c2c1)c1cc(O)c(O)c(O)c1 | > 4 mM (inactive)
45 | COc1ccc(-c2nc3nc(C)cc(C)n3n2)cc1 | > 4 mM (inactive)
46 | O=C1NC(=S)N/C1=C\c1cccc([N+](=O)[O-])c1 | > 4 mM (inactive)
47 | CN(C)C(=O)CCNS(=O)(=O)c1ccccc1 | > 4 mM (inactive)
48 | Cc1nc(SCC(=O)c2c[nH]c3ccccc23)n[nH]1 | inactive

Row | SMILES | Kd
49 | CCNC(=S)Nc1c(C)n(C)n(-c2ccccc2)c1=O | > 4 mM (inactive)
50 | O=C1CC(=O)N(c2cccc(Cl)c2)N1 | > 4 mM (inactive)
51 | CC(C)C(=O)NC(=S)N1CCOCC1 | > 4 mM (inactive)
52 | CC1Oc2ccccc2OC1C(=O)N1CCOCC1 (stereo unspecified) | > 4 mM (inactive)
53 | C[C@H](CCC(=O)O)[C@H]1CCC2C3C(CC[C@@]21C)[C@@]1(C)CC[C@@H](O)C[C@H]1C[C@H]3O (stereo partly specified) | > 4 mM (inactive)
54 | CCN1CCC2(CC1)CC1CC3C=CC1(CN2C(C)=O)O3 (stereo unspecified) | > 4 mM (inactive)
55 | NC(=O)CNC(=O)c1ccccc1 | > 4 mM (inactive)
56 | O=C(Nc1cnccn1)c1cccs1 | > 4 mM (inactive)
57 | CCNC(CC(=O)Nc1ccc(F)cc1)C(=O)O (stereo unspecified) | > 4 mM (inactive)
58 | CCCCCCCCCCCCCc1ccco1 | > 4 mM (inactive)
59 | O=C(c1ccccc1-c1ccccc1)N1CCOCC1 | > 4 mM (inactive)
60 | Cc1nn2c(=O)/c(=C/c3cccc(F)c3)sc2nc1=O | > 4 mM (inactive)
61 | NC(=O)c1ccc(N2C(=O)CCC2=O)cc1Cl | > 4 mM (inactive)
62 | CC1(C)CC2C1CC[C@]1(C)CCC3C(C(=O)O)CC(=O)O[C@@]32C1 (stereo partly specified) | > 4 mM (inactive)
63 | Nc1nnc(SCc2cccnc2)s1 | > 4 mM (inactive)
64 | Cc1n[nH]c(=S)n(/N=C/c2cccs2)c1=O | > 4 mM (inactive)
65 | CCc1ccccc1OCc1nnc(N)s1 | > 4 mM (inactive)
66 | c1ccc(-c2noc(-c3ccco3)n2)nc1 | > 4 mM (inactive)
67 | COCC(=O)Nc1c(C(N)=O)oc2ccccc12 | > 4 mM (inactive)
68 | CC(=O)O[C@H]1CC[C@@]2(C)C(CC[C@]3(C)C2C(=O)C=C2C4[C@@H](C)[C@H](C)CC[C@]4(C(=O)O)CC[C@]23C)C1(C)C (stereo partly specified) | > 4 mM (inactive)
69 | O=C(Nc1c[nH]c(=O)[nH]c1=O)c1cccs1 | > 4 mM (inactive)
70 | COCC(=O)/C=C1\Sc2ccccc2N1C | > 4 mM (inactive)
71 | CC(C)(C)CC(=O)NC1=NCCS1 | > 4 mM (inactive)
72 | Cc1noc(C)c1C(=O)N1CCC2(CC1)OCCO2 | > 4 mM (inactive)

Row | SMILES | Kd
73 | O=C(NCc1ccncc1)c1cccc(F)c1 | inactive
74 | O=C(CC1SC(=O)NC1=O)Nc1nccs1 (stereo unspecified) | > 4 mM (inactive)
75 | Cn1c(O)c(C=NCC2CCNCC2)c(=O)n(C)c1=O | > 4 mM (inactive)
76 | Cc1cc(=O)oc2cc3c(cc12)OCCO3 | > 4 mM (inactive)
77 | CC(=O)OC1CCC2(C)C(=CC=C3C2CCC2(C)C3CCC2C(C)/C=C/C(C)C(C)C)C1(C)C (stereo unspecified) | > 4 mM (inactive)
78 | O=C(CC1Nc2ccccc2NC1=O)Nc1ccc(O)cc1 (stereo unspecified) | > 4 mM (inactive)
79 | O=C(NCc1ccco1)c1nc2ncccn2n1 | > 4 mM (inactive)
80 | Cn1c(CO)nc2cc(N)ccc21 | > 4 mM (inactive)
81 | Cc1ccc(C(=O)N2CCC(C(N)=O)CC2)c(Cl)c1 | > 4 mM (inactive)
82 | Cc1nnc(SCC(N)=O)c2ccccc12 | > 4 mM (inactive)
83 | Cc1cc(C(=O)N2CCN(c3ncccn3)CC2)cs1 | > 4 mM (inactive)
84 | O=C(O)c1snnc1-c1ccccc1 | > 4 mM (inactive)
85 | CC(C)c1ccc(SCC(=O)N2CCOCC2C(=O)OCCCc2cccnc2)cc1 (stereo unspecified) | 0.0056 mM
86 | Cc1ccc(C(C)C)cc2c(C)ccc1-2 | > 4 mM (inactive)
87 | c1ccc(-n2nnnc2-n2cnc3ccccc32)cc1 | > 4 mM (inactive)
88 | OCc1ccc2c(c1)CCO2 | > 4 mM (inactive)
89 | COC(=O)c1c[nH]c2ccccc12 | > 4 mM (inactive)
90 | CC(=O)N1C(=S)NC(=O)/C1=C\c1cccnc1 | > 4 mM (inactive)
91 | CCn1c(=O)cc(N2CCC3(CC2)OCCO3)[nH]c1=O | > 4 mM (inactive)
92 | CC(=O)Oc1cc2c(c(C)c1OC(C)=O)CC=C1[C@@]2(C)CC[C@@]2(C)C3C[C@](C)(C(=O)O)CC[C@]3(C)CC[C@]12C (stereo partly specified) | > 4 mM (inactive)
93 | O=c1[nH]cnc2nn(-c3ccccc3)nc12 | > 4 mM (inactive)
94 | CC(=O)Nc1ccc(NC(C)=O)cc1 | > 4 mM (inactive)
95 | OCc1cccc2c1OCCO2 | > 4 mM (inactive)
96 | NNc1ncnc2sccc12 | > 4 mM (inactive)

Row | SMILES | Kd
97 | Nc1ccc(CCC(=O)O)cc1 | > 4 mM (inactive)
98 | COc1cc(OC)c(-c2nc3cnccc3n2C)cc1OC | > 4 mM (inactive)
99 | CC(=O)NC(C)C12CC3CC(CC(C(=O)O)(C3)C1)C2 (stereo unspecified) | > 4 mM (inactive)
100 | Cc1c(C(=O)NC2=NCCS2)oc2ccccc12 | > 4 mM (inactive)
101 | O=C1c2ccccc2C(=O)N1CCc1ccccn1 | > 4 mM (inactive)
102 | O=C(Nc1cccc(C(F)(F)F)c1)c1cccnc1 | > 4 mM (inactive)
103 | O=S(=O)(N1CCOCC1)n1cnc2ccccc21 | inactive
104 | Cc1cc(C(=O)NCc2cccs2)c(C)o1 | > 4 mM (inactive)
105 | COc1ccc(Cc2nnc3c4cnn(C)c4ncn23)cc1 | > 4 mM (inactive)
106 | CC1(C)SCC(C(=O)O)N1C=O (stereo unspecified) | > 4 mM (inactive)
107 | Cc1n[nH]c(=O)nc1N1CCN(c2ccccc2)CC1 | > 4 mM (inactive)
108 | Nc1ccc2ncsc2c1 | > 4 mM (inactive)
109 | Cc1ccc(NC(=O)c2ccccc2)s1 | > 4 mM (inactive)
110 | C=CCCCCCCCCCCCC(O)CC(O)CO (stereo unspecified) (tested in a mixture with another compound) | > 4 mM (inactive)
111 | NC(=O)C1CCN(S(=O)(=O)c2ccccc2)CC1 | > 4 mM (inactive)
112 | COC(=O)C1COCCN1C(=O)CSc1ccc(C(C)C)cc1 (stereo unspecified) | 0.0003 mM
113 | COc1ccc(N=C2NC(=O)CS2)cc1 | > 4 mM (inactive)
114 | COc1cc2c(cc1O)CCNC2C (stereo unspecified) | > 4 mM (inactive)
115 | C[C@@H]1O[C@@H](O[C@H]2[C@H](Oc3cc(O)c4c(=O)cc(-c5ccc(O)cc5)oc4c3)O[C@H](CO)[C@@H](O)[C@@H]2O)[C@H](O)[C@H](O)[C@H]1O | > 4 mM (inactive)
116 | c1ccc(CCN2CCN(CCc3ccccn3)CC2)nc1 | > 4 mM (inactive)
